Test results as given in patent publication US5266600A (priority 1992, dated 1993).
Converted amounts (≈) assume the structure as drawn. “Also recorded” adds a separate entry of the source. Read-outs that look alike come from different tables or passages of the source.

How the values were obtained:
[1] = system: tubulin bundling in human colon cells; experiment: Immunofluorescence study of tubulin bundling in human colon cells; assay type: cell-based
tubulin (3XMTP) [2] = conditions: cited from earlier work
[3] = system: syncytium formation between HIV gp-120 expressing BSC-1 cells and HeLa-T4 (CD4) cells; experiment: Syncytium formation inhibition assay; assay type: cell-based; conditions: for Syncytium inhibitory activity ID50: 3-5 hours, 37° C.
MT-4 cells = experiment: Cytotoxicity in virus-uninfected MT-4 cells; assay type: cell-based; conditions: human, mt-4 cells
[4] = system: HTLV-III (human T cell lymphotropic virus type III); experiment: Inhibition of HTLV-III infection in MT-4 cells (MTT); assay type: cell-based; conditions: for EC50: HTLV-III infected MT-4 cells, 5 days, MTT
Method: Human T cell lymphotropic virus type III (HTLV-III)/lymphadenopathy-associated virus is the etiologic agent of the acquired immune deficiency syndrome (AIDS) and AIDS-related complex. […] (Nakashima, H. et al., Antimicrobial Agents & Chemotherapy, 30, pp 933-937, 1986).
An HTLV type I-Carrying cell line, MT-4, was maintained in RPMI 1640 medium supplemented with 10% fetal calf serum, 100 IU of penicillin G per ml and 100 μg of streptomycin per ml at 37° C. in a CO2 incubator. HTLV-III8 was obtained from the supernatant of the Molt-4/HTLV-III8 culture. The titer of this virus preparation was 3.0×10^5 PFU/ml. MT-4 cells were infected with 0.01 MOI of HTLV-III8. The infected cells resuspended in fresh medium were mixed with a test sample solution (or medium itself for control) to give 2.5×10^4 cells in a 200 μl volume and incubated at 37° C. for 5 days. The surviving cells were measured by the MTT (3-(4,5-dimethylthiazol-2-yl)-2,5-diphenyltetrazolium bromide) method (R. Pauwels et al., J. Virol Methods, 20, pp 309-321, 1988). [formula]
Fifty percent effective concentration (EC50) was obtained from the inhibition rates.

[5] = Cytotoxicity in virus-uninfected MT-4 cells; assay type: cell-based; conditions: human; virus-uninfected MT-4 cells
tubulin (3XMTP) [6] = experiment: Electron microscopic observation of microtubule assembly in 3XMTP; assay type: biochemical, calf; conditions: 100 μM
tubulin (3XMTP) [7] = experiment: Tubulin polymerization assay using thrice-cycled microtubule protein (3XMTP), spectrophotometric; assay type: biochemical, calf
Method: Briefly, tubulin was purified from calf brain extracts by three cycles of polymerization at 35° C. in the presence of 1 mM GTP+2.5 mM ATP, and depolymerization at 4° C. in PM buffer pH 6.6 (0.1 M PIPES, […]) containing various concentrations of glycerol as described previously (Williams R. C. and J. C. Lee 1982 Methods in Enzymology 85: pp. 376-385). The tubulin polymerization assay was carried out using 3XMTP in PM buffer containing 0.4 M of glycerol in the presence of test-compound. The polymerization was quantitated by Shimadzu spectrophotometer (Model No. UV 2100U) at 350 nm. Effect of compound on the kinetics of tubulin polymerization was followed for 20 minutes using taxol as a positive control and DMSO as a negative control. Compound in PM buffer +0.4 M glycerol (no MTP) served as buffer (negative) controls.

[8] = molecular target: T1, HIV envelope protein gp120 / T cells (UniProt P01730+P04578); experiment: Binding of HIV envelope protein gp120 to T cells
T1 construct: CD4 native on cells

HIV-1 IIIb = experiment: Acute infection of HIV-1 IIIb in CEM-SS cells; assay type: cell-based
Solubility = assay type: physicochemical
Text: BU-4641V was isolated as a white amorphous powder. […] It gave positive responses to iodine vapor, sulfuric acid and ferric chloride tests, but negative responses to Rydon-Smith, Dragendorff and anthrone-sulfuric acid tests on silica gel TLC plate.

[9] = Cytotoxicity in CEM-SS cells; assay type: cell-based; conditions: human

CC(=O)O[C@H]1C(=O)[C@@]2(C)[C@H]([C@H](OC(=O)c3ccccc3)[C@]3(O)C[C@H](OC(=O)[C@H](O)[C@@H](NC(=O)c4ccccc4)c4ccccc4)C(C)=C1C3(C)C)[C@]1(OC(C)=O)CO[C@@H]1C[C@@H]2O [Taxol, reference compound]
tubulin bundling around nuclei (in words) [1]: induces tubulin bundling around nuclei | promotion of tubulin polymerization (in words), known (tubulin (3XMTP) [2]; taxol): promote tubulin polymerization

Dextran sulfate [reference compound]
Syncytium inhibitory activity ID50 [3]: 12.0 µg/mL | CC50 (MT-4 cells): > 1000 µg/mL | EC50 [4]: 1.4 µg/mL

CC1=CCC2(C)C(=O)C(O)=C(C(C)CO)C2CC=C(C)C(O)CCC(C)=CCC1 (stereo not drawn) [BU-4641V]
Syncytium inhibitory activity ID50 [3]: 0.46 µg/mL | syncytium inhibitory activity (in words) ([3]; compared with dextran sulfate): more potent syncytium inhibitory activity; also recorded: stronger syncytium inhibitory property than that of dextran sulfate | CC50 [5]: 37.8 µg/mL (≈ 93.9 µM) | microtubule assembly by electron microscopy (in words) (tubulin (3XMTP) [6]): confirmed by electron microscopic observation of microtubule assembly | EC50 [4]: 0.78 µg/mL (≈ 1.94 µM) | activity against HTLV-III (in words) ([4]; compared with dextran sulfate): more active than dextran sulfate against HTLV-III | promotion of tubulin polymerization (in words) (tubulin (3XMTP) [7]): promotes tubulin polymerization in a dose dependent manner; also recorded: reversibly stimulates polymerization of purified tubulin protein; also recorded: promote tubulin polymerization | initial rate of tubulin polymerization (in words) (tubulin (3XMTP) [7]; compared to taxol): slower initial rate | reversal of tubulin polymerization by CaCl2 (in words) (tubulin (3XMTP) [7]; treatment with CaCl2): can be reversed by treatment with CaCl2 | binding of HIV envelope protein gp120 to T cells [8]: does not affect the binding of HIV envelope protein gp120 to T cells | tubulin bundling around nuclei (in words) [1]: induces tubulin bundling around nuclei | blocking of acute HIV-1 IIIb infection (in words) (HIV-1 IIIb): only partially blocks the acute infection of HIV-1 IIIb | IC50 (HIV-1 IIIb; acute infection of HIV-1 IIIb): 10 µM | solubility (Solubility): soluble in dimethyl sulfoxide, methanol, methylene chloride, ethyl acetate and alkaline water (such as 0.1 N NaOH); also recorded: insoluble in hexane and water | CC50 [9]: 84 µM

Nc1nc2c(ncn2[C@@H]2O[C@H](COP(=O)(O)OP(=O)(O)OP(=O)(O)O)[C@@H](O)[C@H]2O)c(=O)[nH]1 [GTP]
promotion of tubulin polymerization (in words), known (tubulin (3XMTP) [2]; GTP): known to reversibly promote tubulin polymerization; also recorded: only active on tubulin in the presence of microtubule associated proteins (MAPS)
